In patent US6403642B1, “Sulfur adsorbent for reducing onion or garlic breath odor” (PQ Holding, Inc., priority 1999, dated 2002):

Key:
[1] = Sulfur compound adsorption in the presence of mint oil (sniff test), hydrogen sulfide; conditions: H2S 50 ppb, mint oil 50 ppb, adsorbent 0.1% w/v, 20 minutes of shaking, sniffed
Description: (§1) All dilution operations were done using water under nitrogen in capped bottles. Hydrogen sulfide was measured as a gas in a syringe and injected into a sealed bottle containing deoxygenated water. The concentration (ppb w/w) was calculated assuming all of the hydrogen sulfide (H2S) dissolved in the water after shaking, and using the density of the gas.
(§2) All of the liquid compounds were handled by syringe. Concentrations of thiols are reported assuming that their specific gravity is 1. Adsorbents, as made by Example 1, were weighed as dry powders into bottles before sealing and before the addition of room temperature dilute sulfide solution. After 20 minutes of shaking, the bottle was unsealed and the contents carefully sniffed.
(§3) The object of the experiment was to remove the thiol odor but not to remove the mint oil aroma.

[2] = Sulfur compound adsorption in the presence of mint oil (sniff test), diallyl disulfide; conditions: Diallyl disulfide 5 ppb (w/v), mint oil 50 ppb, adsorbent 0.1% w/v, 20 minutes of shaking, sniffed
Description: as §1, §2, §3

[3] = Activity of metal complexes in removing garlic odor (sniffed for residual odor); parameters: key: ++: complete odor removal; +: slight odor remaining; −: no odor removal; NA: complex was not insoluble; ?: allyl mercaptan smell masked by methionine smell; conditions: 5 ml solution with 627 nmol allyl mercaptan in water, sealed vial, 10 minutes, room temperature
Description: Each amino acid solution was made by dissolving 2.74 g of the amino acid into 40 ml of water. The complex with the metal was synthesized as described in the second step of Example 1.
Odor removal was tested using 5 ml of a solution containing 627 nmol of allyl mercaptan in water. A suspension of the metal complex was mixed with the mercaptan solution, reacted in a sealed vial for 10 minutes at room temperature, and then sniffed for residual odor.

[4] = Sulfur compound adsorption in the presence of mint oil (sniff test), propane thiol; conditions: Propane thiol 5 ppb (w/v), mint oil 50 ppb, adsorbent 0.1% w/v, 20 minutes of shaking, sniffed
Description: as §1, §2, §3

[5] = Sulfur compound adsorption in the presence of mint oil (sniff test), allyl mercaptan; conditions: Allyl mercaptan 5 ppb (w/v), mint oil 50 ppb, adsorbent 0.1% w/v, 20 minutes of shaking, sniffed
Description: as §1, §2, §3

Q: Which results are given for Cystine-copper Complex?
A: Smell Garlic, Effect [1]: None; Smell Mint, Effect [1]: strong; Smell Garlic, Effect [2]: v. weak; Activity in removing garlic odor [3]: ++; Smell Garlic, Effect [4]: Faint; Smell Garlic, Effect [5]: v. faint
